Test [1] is filed under the species Homo sapiens. Briefly: Selectivity ratio of compound effect for alpha1B adrenergic receptor (unknown origin) to compound effect for alpha1D adrenergic receptor (unknown origin).
The target in test [2] is T1, Alpha-1B adrenergic receptor (Homo sapiens, UniProt P35368).
T1 sequence (P35368 whole entry): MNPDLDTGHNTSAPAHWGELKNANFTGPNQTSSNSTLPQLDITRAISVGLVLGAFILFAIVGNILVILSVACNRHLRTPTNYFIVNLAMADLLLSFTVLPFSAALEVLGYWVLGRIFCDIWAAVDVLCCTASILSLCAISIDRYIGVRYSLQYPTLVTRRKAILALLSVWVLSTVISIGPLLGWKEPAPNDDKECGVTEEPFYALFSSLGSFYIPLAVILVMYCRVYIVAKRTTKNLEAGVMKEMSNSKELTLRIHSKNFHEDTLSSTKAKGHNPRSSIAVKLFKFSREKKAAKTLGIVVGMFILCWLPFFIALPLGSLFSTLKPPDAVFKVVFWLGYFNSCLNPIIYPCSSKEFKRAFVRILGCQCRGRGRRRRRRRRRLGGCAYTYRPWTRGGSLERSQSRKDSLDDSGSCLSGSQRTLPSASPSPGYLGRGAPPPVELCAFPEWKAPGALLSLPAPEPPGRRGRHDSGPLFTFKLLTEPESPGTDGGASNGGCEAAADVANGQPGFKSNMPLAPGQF
Briefly: Binding affinity to alpha1B adrenergic receptor (unknown origin).

The target in test [3] is T2, Alpha-1D adrenergic receptor (Homo sapiens, UniProt P25100).
T2 sequence (P25100 whole entry): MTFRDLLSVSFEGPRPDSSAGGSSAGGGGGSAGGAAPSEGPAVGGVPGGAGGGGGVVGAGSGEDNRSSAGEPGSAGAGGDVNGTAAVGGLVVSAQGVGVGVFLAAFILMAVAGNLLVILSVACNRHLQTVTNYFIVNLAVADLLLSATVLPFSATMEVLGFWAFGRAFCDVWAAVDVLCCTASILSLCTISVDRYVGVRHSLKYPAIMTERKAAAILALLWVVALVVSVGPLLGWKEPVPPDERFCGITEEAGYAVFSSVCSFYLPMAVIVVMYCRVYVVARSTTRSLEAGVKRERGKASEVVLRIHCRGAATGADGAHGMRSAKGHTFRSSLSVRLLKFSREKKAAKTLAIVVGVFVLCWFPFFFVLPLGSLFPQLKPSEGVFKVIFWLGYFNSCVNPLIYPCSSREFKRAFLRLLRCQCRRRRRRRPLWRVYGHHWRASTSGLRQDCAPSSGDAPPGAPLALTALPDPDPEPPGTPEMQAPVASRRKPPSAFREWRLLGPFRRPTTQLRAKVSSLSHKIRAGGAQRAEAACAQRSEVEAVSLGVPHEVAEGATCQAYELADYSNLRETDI
Briefly: Binding affinity to alpha1D adrenergic receptor (unknown origin).

On to `COc1cc2nc(N3CCN(C(=O)C4COc5ccccc5O4)[C@H]4CCCC[C@H]43)nc(N)c2cc1OC` (single isomer, unassigned; (-)) [CYCLODOXAZOSIN], for which, in test [1], the Selectivity ratio was found to be 3. Also, the Ki in test [2] was 1.41 nM; in test [3], 3.89 nM.

The values are drawn from ChEMBL document CHEMBL4118202, “Chiral analogues of (+)-cyclazosin as potent α1B-adrenoceptor selective antagonist” (Bioorg Med Chem, 2018).
